# Assay results published in US7863267B2, “Use of selective chloride channel modulators to treat methamphetamine abuse” (priority 2003, dated 2011).
# Like-named read-outs stand apart in the source and are kept apart here.
# Key:
# [1] = excreted unchanged, not appreciably metabolized; cited from earlier work
# [2] = cited from earlier work
# [3] = system: ethanol withdrawal syndrome; conditions: cited from earlier work
# alcoholics [4] = assay: Clinical observations during hospitalization (appetite, sleep, anxiety, desire to drink); assay type: in vivo, human
# Description: (§1) 64 alcoholics (51 males and 13 females) voluntarily entered a treatment program to discontinue the use of alcohol. The patients were provided the appropriate information and the corresponding informed consent form was obtained from them. The patients were warned not to drink alcohol the morning on which the treatment was to be carried out to enable better evaluation of the withdrawal symptoms. Table 14 summarizes the characteristics of the patients treated associated with alcohol use.
# (§2) Flumazenil was administered at a dose of 0.2 mg every 3 minutes (up to a total of 2 mg/day). This quantity per dose was established to minimize the adverse side effects associated with withdrawal or interactions with other pharmaceuticals or psychopathologies.
# alcoholics [5] = assay: Heart rate and blood pressure before and after flumazenil in alcoholics; assay type: in vivo, human; parameters: Heart rate: patients with a significant reduction / Diastolic blood pressure: patients with a significant reduction: concentration or dose not given beside the values
# Description: as §1
# (§3) Before starting the treatment, the patients underwent a complete medical and psychological examination. The monitoring of the patients throughout the morning included a complete blood count, a biochemical profile [creatinine, glucose, blood urea nitrogen (BUN), cholesterol (HDL and LDL), triglycerides, alkaline phosphatase, LDH (lactic dehydrogenase) and total proteins], hepatic function tests [GOT, GPT, GGT, bilirubin), electrocardiogram and, if need be, pregnancy test and x-ray examination. The exclusion criteria applied included acute or uncompensated illnesses, as well as the taking of any drug contraindicated with flumazenil. No patient was excluded after the pre-admission interview and the tests performed. Admission of one patient was postponed until their cardiac pathology was checked.
# (§4) Before and after the administration of flumazenil, the withdrawal symptomatology was measured using the CIWA-A evaluation (Adinoff et al., Medical Toxicology 3:172-196 (1988)), as well as heart rate and blood pressure.
# as §2
# (§5) Patients who presented marked anxiety were administered an additional dose of 192 mg of clomethiazole 30 minutes before administration of flumazenil.
# alcoholics [6] = assay: Follow-up after flumazenil treatment programme (therapy, dropouts); assay type: in vivo, human
# Procedure: Before discharge from the hospital, the following medications were prescribed: • Vitamin B complex: 1 month with one dose during breakfast and one dose during lunch. • Piracetam, or a medicament that is pharmacologically equivalent, 3 g for 1 week with one dose during breakfast and 800 mg for 1 month with one dose during breakfast and one dose during lunch; • Fluoxetine 20 mg for 2 months with one dose during breakfast; • Clomethiazole 192 mg for 1 week with one dose during breakfast and one dose during dinner and a subsequent elimination of dose during the second week; • Disulfuram 250 mg with one dose during breakfast.
# As part of the treatment program, the patients were instructed to attend the outpatient treatment center for 9 months with decreasing frequency [once a week for the first three months, once every two weeks during the second three months, and once a month during the third three months].
# Likewise, a semi-structured follow-up of cognitive behavior therapy was implemented. Individual and family psychotherapy was focused on 4 major interventions (cognitive restructuring, work therapy, prevention of relapse, and stress reduction) aimed at rehabilitating the social, family, work, personal and leisure life of the patient.
# Table 16 statistically summarizes the results obtained before and after the treatment (at the end of 18 hours).
# alcoholics [7] = assay: CIWA-A withdrawal symptomatology before and after flumazenil in alcoholics; assay type: in vivo, human
# Description: as §1, §3, §4, §2, §5
# alcoholics [8] = assay: Adverse events during flumazenil administration in alcoholics; assay type: in vivo, human
# Description: as §1, §2, §5
# [9] = system: alcoholics in the acute withdrawal phase; conditions: 2 mg IV for 1 minute, 8 alcoholics, cited from earlier work
# [10] = after first administration, 53 patients
# [11] = after first administration, 55 patients
# [12] = after second administration, 55 patients
# [13] = after second administration, 56 patients
# [14] = after second administration, 58 patients
smiles,measurement,setting,value
NCC1(CC(=O)O)CCCCC1 [Gabapentin],Elimination half-life,[1],5 to 7 h
OCCOCCN1CCN(C(c2ccccc2)c2ccc(Cl)cc2)CC1 (centres unmarked) [Hydroxyzine],Time to effects after oral administration,[2],15 to 30 min
"CCOC(=O)c1ncn2c1CN(C)C(=O)c1cc(F)ccc1-2 [flumazenil, ethyl 8-fluoro-5,6-dihydro-5-methyl-6-oxo-4H-imidazol[1,5-a][1,4]benzodiazepine-3-carboxylate]","Anxiogenic withdrawal effects (social interaction test, elevated plus maze)",[3]; rat models of the ethanol withdrawal syndrome,reverse anxiogenic withdrawal effects
same,Agitation and stereotyped behavior induced by withdrawal from long-term ethanol exposure,[3]; rats,prevent the agitation and stereotyped behavior
same,Psychophysiological functions such as appetite and sleep,alcoholics [4],regained very rapidly
same,Spontaneous verbal report from the majority of the patients,alcoholics [4],absence of anxiety and of the desire to drink alcohol
same,Diastolic blood pressure: patients with a significant increase,alcoholics [5]; [10],18.9%
same,Diastolic blood pressure: patients with a significant reduction,alcoholics [5]; [10],34%
same,Diastolic blood pressure: patients with no change,alcoholics [5]; [10],47.2%
same,Systolic blood pressure: patients with a significant increase,alcoholics [5]; [10],15.1%
same,Systolic blood pressure: patients with a significant reduction,alcoholics [5]; [10],47.2%
same,Systolic blood pressure: patients with no change,alcoholics [5]; [10],37.7%
same,Heart rate: patients with a significant increase,alcoholics [5]; [11],9.1%
same,Heart rate: patients with a significant reduction,alcoholics [5]; [11],50.9%
same,Heart rate: patients with no change,alcoholics [5]; [11],40.0%
same,Heart rate: patients with a significant reduction,alcoholics [5]; [12],41.8%
same,Heart rate: patients with no change,alcoholics [5]; [12],58.2%
same,Diastolic blood pressure: patients with a significant increase,alcoholics [5]; [13],19.6%
same,Diastolic blood pressure: patients with a significant reduction,alcoholics [5]; [13],28.6%
same,Diastolic blood pressure: patients with no change,alcoholics [5]; [13],51.8%
same,Systolic blood pressure: patients with a significant increase,alcoholics [5]; [13],16.1%
same,Systolic blood pressure: patients with a significant reduction,alcoholics [5]; [13],28.6
same,Systolic blood pressure: patients with no change,alcoholics [5]; [13],55.4%
same,Diastolic blood pressure mean after treatment,"alcoholics [5]; after treatment (at the end of 18 hours), n=51, before treatment mean 86.27",82.75
same,Systolic blood pressure mean after treatment,"alcoholics [5]; after treatment (at the end of 18 hours), n=51, before treatment mean 135.2",126.67
same,Heart rate mean after treatment,"alcoholics [5]; after treatment (at the end of 18 hours), n=53, before treatment mean 81.42, in beats/min (unit assumed)",75.02
same,Follow-up: Dropouts,"alcoholics [6]; Month 1, N 43",4.7%
same,Follow-up: Therapy and Disulfiram,"alcoholics [6]; Month 1, N 43",95.3%
same,Follow-up: Therapy without Disulfiram,"alcoholics [6]; Month 1, N 43",4.5%
same,Follow-up: Dropouts,"alcoholics [6]; Month 3, N 22",9.1%
same,Follow-up: Therapy and Disulfiram,"alcoholics [6]; Month 3, N 22",86.4%
same,Follow-up: Dropouts,"alcoholics [6]; Month 6, N 12",25%
same,Follow-up: Therapy and Disulfiram,"alcoholics [6]; Month 6, N 12",75%
same,Follow-up: Dropouts,"alcoholics [6]; Month 9, N 8",12.5%
same,Follow-up: Therapy and Disulfiram,"alcoholics [6]; Month 9, N 8",75%
same,Follow-up: Therapy without Disulfiram,"alcoholics [6]; Month 9, N 8",12.5%
same,CIWA-A scoring: patients with a significant reduction,"alcoholics [7]; after first administration of flumazenil (0.2 mg every 3 min up to 2 mg/day), 55 patients",47.3%
same,CIWA-A scoring: patients with a significant increase,alcoholics [7]; [11],12.7%
same,CIWA-A scoring: patients with no change,alcoholics [7]; [11],40.0%
same,CIWA-A scoring: patients with a significant increase,alcoholics [7]; [14],8.6%
same,CIWA-A scoring: patients with a significant reduction,alcoholics [7]; [14],36.2%
same,CIWA-A scoring: patients with no change,alcoholics [7]; [14],55.2%
same,CIWA-A mean after treatment,"alcoholics [7]; after treatment (at the end of 18 hours), n=54, before treatment mean 4.13",.76
same,Patients who suffered headache during or immediately following administration,alcoholics [8]; disappeared after a few minutes or after metamizole magnesium,Approximately 10%
same,First administration of flumazenil interrupted and postponed to the following day,"alcoholics [8]; of the 64 patients treated, increase in confusion, distal tremors or anxiety",3 cases
same,Withdrawal symptoms after flumazenil,[9]; in other cases,the withdrawal symptoms disappeared but returned a few hours later
same,Withdrawal symptoms after flumazenil,"[9]; in some cases, especially sweats and anxiety",immediate worsening of the withdrawal symptoms
